The text below walks through data of patent US6307108A, “Metal-ligand complex catalyzed processes” (Union Carbide Chemicals & Plastics Technology Corporation, priority 2000, dated 2001).

The data set is described as follows: Heptane/acetonitrile partition (Kpartition) and extraction factor after hydroformylation. Type of data set: physicochemical. The following applies: for Kpartition = amount of product in the heptane phase/amount of product in the acetonitrile phase: Examples 4, 6, 8, Ligand B reaction solution in heptane (2 milliliters) extracted with acetonitrile (2 milliliters), gas chromatography; for Kpartition = amount of material in the heptane phase/amount of material in the acetonitrile phase: room temperature; for extraction factor = Kpartition rhodium/Kpartition product: heptane/acetonitrile. On the procedure:
To the vessel was then added an equal volume of acetonitrile. The mixture was vigorously shaken for several minutes then allowed to settle and phase separate. The layers were then analyzed for rhodium content and hydroformylation product. The partition coefficient of the catalyst and the product, as defined bay Kpartition=amount of material in the heptane phase/amount of material in the acetonitrile phase, was then determined for each component.
A portion of the reaction solution (2 milliliters) was extracted with acetonitrile (2 milliliters). The phases were separated and the content of ethyl 11-formylundecanoate product was determined in both phases by gas chromatography.
A portion of the reaction solution (2 milliliters) was extracted with acetonitrile (2 milliliters). The phases were separated, and the content of methyl 11-formylundecanoate product in each phase was determined by gas chromatography.
A portion of the reaction solution (2 milliliters) was extracted with acetonitrile (2 milliliters). The phases were separated and the content of butyl 11-formylundecanoate product was determined in both phases by gas chromatography.
A portion of the reaction solution (5 mL) was diluted with heptane (10 mL), shaken at room temperature under nitrogen with acetonitrle (13 mL) and allowed to settle. Two phases with approximately equal volumes were analyzed for rhodium and the hydroformylation product. The partition coefficient of the catalyst and the product defined as Kpartition=amount of material in the heptane phase/amount of material in the acetonitrile phase was determined for each component.

`CCCCOC(=O)CCCCCCCCCCC=O` [butyl 11-formylundecanoate]: the “Kpartition = amount of product in the heptane phase/amount of product in the acetonitrile phase” value stood at 0.56.

As to `CCOC(=O)CCCCCCCCCCC=O` [ethyl 11-formylundecanoate], the “Kpartition = amount of product in the heptane phase/amount of product in the acetonitrile phase” value amounted to 0.25.

As to `COC(=O)CCCCCCCCCCC=O` [methyl 11-formylundecanoate], the “Kpartition = amount of product in the heptane phase/amount of product in the acetonitrile phase” value was 0.19.

With rhodium, the “Kpartition = amount of material in the heptane phase/amount of material in the acetonitrile phase” value came to 170 (Example 2, Example 1 reaction solution (Ligand A, ethyl 10-undecenoate), equal volume acetonitrile) and 166 (Example 9, Ligand A, methyl 10-undecenoate, 5 mL reaction solution diluted with heptane (10 mL), acetonitrile (13 mL)). The “extraction factor = Kpartition rhodium/Kpartition product” value was 680 (Example 2) and 976 (Example 9).
